One may read the EC50 as the concentration at which the effect is half-maximal.

Type in all cases: functional, organism-based
The species named for experiment [1] is Gallus gallus. As to the kind of experiment: Concentration that produced 50% reversal of gallamine induced neuromuscular block in the chick biventer assay.
For experiment [2], the species on record is Gallus gallus. The experiment is described as follows: Tested for association constant against pancuronium relaxant in chick biventer muscle preparation.
The species named for experiment [3] is Gallus gallus. The experiment is described as follows: Tested for association constant against gallamine relaxant in chick biventer muscle preparation.
Experiment [4] is filed under the species Gallus gallus. The experiment is described as follows: Concentration that produced 50% reversal of pancuronium induced neuromuscular block in the chick biventer assay.
For experiment [5], the species on record is Gallus gallus. As to the kind of experiment: Tested for the reversion of vecuronium-induced block in chick biventer assay.

For the molecule `O=C(O)c1cc2ccc1OCc1ccc(cc1)COc1ccc(cc1C(=O)O)Cc1ccc(c(C(=O)O)c1)OCc1ccc(cc1)COc1ccc(cc1C(=O)O)C2`, the EC50 worked out at 563 µM in the experiment listed under Gallus gallus [1] and 292 µM in the experiment filed under Gallus gallus [4]. Besides, the results for the Ka in the experiment filed under Gallus gallus [2] and in the experiment listed under Gallus gallus [3] were 2500 M⁻¹ and 3280 M⁻¹, respectively.
For `O=C(O)c1cc2ccc1OCc1ccc3cc(ccc3c1)COc1ccc(cc1C(=O)O)Cc1ccc(c(C(=O)O)c1)OCc1ccc3cc(ccc3c1)COc1ccc(cc1C(=O)O)C2`, in that order: 104 µM, 40 µM, 10400 M⁻¹ and 13200 M⁻¹.
Taken in the same sequence, the figures for `O=C(O)c1cc2ccc1OCCCCCOc1ccc(cc1C(=O)O)Cc1ccc(c(C(=O)O)c1)OCCCCCOc1ccc(cc1C(=O)O)C2` were 1030 µM, 142 µM, 167 M⁻¹ and 608 M⁻¹.
Take `CN(C)C(=O)Oc1cccc([N+](C)(C)C)c1` [NEOSTIGMINE BROMIDE]: the midpoint of the response in the experiment listed under Gallus gallus [5], the EC50, lay at 0.028 µM.
